From article PMC10541190 (The Journal of Clinical Investigation, 2023)
Values joined by “and” are separate entries in the source; they are usually repeats but may differ in a detail not shown here. Equal values may be shown once. Read-outs that look alike come from different tables or passages of the source.

Columns and labels:
VEEV (TC-83) [1] = format: cell-based
DENV2 = format: cell-based
in vitro [2] = conditions: African green monkey
[3] = tested on: SARS-CoV-2 (USA-WA1/2020); experiment: microbe, parasite or virus in culture; format: cell-based; conditions: for EC50: Severe acute respiratory syndrome coronavirus 2, Vero, 24 h, read-out: SARS-CoV-2 EC50
in vitro [4] = conditions: human, Huh7 cell viability (%)
[5] = tested on: SARS-CoV-2 (Belgium-GHB-03021); format: cell-based
Huh7 cells = conditions: human
in vitro [6] = conditions: human
U-87 MG cells = conditions: human
VEEV (TC-83) [7] = experiment: microbe, parasite or virus in culture; format: cell-based; conditions: Venezuelan equine encephalitis virus, U-87 MG, read-out: EC50, VEEV (TC-83) infection
ErbB4 [8] = molecular target: T1, ErbB4 (Homo sapiens, UniProt Q15303); conditions: read-out: KD of binding or IC50 (nM), ErbB4; cited from earlier work
ErbB1 (EGFR) = conditions: read-out: KD of binding or IC50 (nM), ErbB1; cited from earlier work
in vitro [9] = conditions: human; remark: listed apart in the source
[10] = tested on: SARS-CoV-2 (USA-WA1/2020); experiment: microbe, parasite or virus in culture; format: cell-based; conditions: Severe acute respiratory syndrome coronavirus 2, Calu-3, read-out: EC50, SARS-CoV-2 infection
ErbB4 [11] = molecular target: T1, ErbB4; experiment: biochemical; conditions: read-out: ErbB4 activity (%)

T1 sequence (Q15303 26-1308): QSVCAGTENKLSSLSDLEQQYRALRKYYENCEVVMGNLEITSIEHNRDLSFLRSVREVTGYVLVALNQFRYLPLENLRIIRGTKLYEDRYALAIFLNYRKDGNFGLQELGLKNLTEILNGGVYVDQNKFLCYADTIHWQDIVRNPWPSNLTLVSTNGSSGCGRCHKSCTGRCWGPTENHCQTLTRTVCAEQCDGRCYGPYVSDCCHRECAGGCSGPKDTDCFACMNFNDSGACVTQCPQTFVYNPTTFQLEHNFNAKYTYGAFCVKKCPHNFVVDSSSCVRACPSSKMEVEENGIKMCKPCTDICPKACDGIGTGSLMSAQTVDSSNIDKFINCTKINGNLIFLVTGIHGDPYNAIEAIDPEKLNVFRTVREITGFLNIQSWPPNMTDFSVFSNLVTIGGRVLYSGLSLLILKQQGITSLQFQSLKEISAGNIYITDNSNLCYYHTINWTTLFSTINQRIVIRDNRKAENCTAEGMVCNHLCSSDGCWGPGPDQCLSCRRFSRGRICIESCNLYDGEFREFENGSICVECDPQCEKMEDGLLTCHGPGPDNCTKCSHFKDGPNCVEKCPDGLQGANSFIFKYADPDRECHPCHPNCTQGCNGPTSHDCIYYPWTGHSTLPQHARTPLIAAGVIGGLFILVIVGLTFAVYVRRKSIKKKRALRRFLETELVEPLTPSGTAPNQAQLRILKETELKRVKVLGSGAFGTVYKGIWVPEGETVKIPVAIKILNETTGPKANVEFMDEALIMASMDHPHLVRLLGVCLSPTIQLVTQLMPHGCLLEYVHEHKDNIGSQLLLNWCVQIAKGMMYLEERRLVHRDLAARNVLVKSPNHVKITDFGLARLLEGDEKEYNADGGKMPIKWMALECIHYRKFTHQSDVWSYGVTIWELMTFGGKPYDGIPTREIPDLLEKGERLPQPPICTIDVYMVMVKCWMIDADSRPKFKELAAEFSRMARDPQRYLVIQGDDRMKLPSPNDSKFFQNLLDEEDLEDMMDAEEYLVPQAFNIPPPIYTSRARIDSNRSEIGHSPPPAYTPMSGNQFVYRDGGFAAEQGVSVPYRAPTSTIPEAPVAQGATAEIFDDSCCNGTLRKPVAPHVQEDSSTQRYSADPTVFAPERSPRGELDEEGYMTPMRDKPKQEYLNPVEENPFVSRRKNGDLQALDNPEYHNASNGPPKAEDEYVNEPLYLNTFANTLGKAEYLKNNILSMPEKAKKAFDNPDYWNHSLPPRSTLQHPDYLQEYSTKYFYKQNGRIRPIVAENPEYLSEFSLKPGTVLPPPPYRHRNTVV

SMILES: [N-]=[N+]=CC(=O)OC[C@H](N)C(=O)O [Azaserine]
- replication of TC-83 (VEEV (TC-83) [1]): dose-dependently inhibited replication
- replication of DENV2 (DENV2): dose-dependently inhibited replication
- CC50 (in vitro [2]): > 20000 nM
- EC50 [3]: 700 nM
- viability at 0.37 µM (in vitro [4]): 114%
- viability at 3.33 µM (in vitro [4]): 69.5%
- viability at 10 µM (in vitro [4]): 60.6%
- viability at […] (in vitro [4]): 107%

SMILES: CNc1ccc2oc(C[C@H]3O[C@@]4(CC[C@H]3C)O[C@H]([C@H](C)C(=O)c3ccc[nH]3)[C@H](C)C[C@H]4C)nc2c1C(=O)O [Calcimycin]
- replication of TC-83 (VEEV (TC-83) [1]): dose-dependently inhibited replication
- replication of DENV2 (DENV2): dose-dependently inhibited replication
- CC50 (in vitro [2]): > 20000 nM
- EC50 [3]: 600 nM
- viability at 0.37 µM (in vitro [4]): 98%
- viability at 3.33 µM (in vitro [4]): 50.5%
- viability at 10 µM (in vitro [4]): 23.5%
- viability at […] (in vitro [4]): 77.7% and 102%

SMILES: N#C[C@@]1(c2ccc3c(N)ncnn23)O[C@H](CO)[C@@H](O)[C@H]1O [GS-441524]
- rescue of Vero-eGFP cells from SARS-CoV-2-induced lethality, dose response [5]: dose-dependent anti-SARS-CoV-2 activity

SMILES: CC(=O)O[C@@H]1C[C@H]2C(C)(C)C(=O)C=C[C@]2(C)[C@H]2CC[C@@]3(C)[C@H](c4ccoc4)OC(=O)[C@H]4O[C@]43[C@@]21C [Gedunin]
- Cell viability (%) (Vero cells; 0.625 μM): 106.58% and 104.74%
- Cell viability (%) (Vero cells; 1.25 μM): 98.66%
- Cell viability (%) (Vero cells; 5 μM): 83.37% and 75.82%
- Cell viability (%) (Vero cells; 20 μM): 88.12% and 85.24%
- replication of TC-83 (VEEV (TC-83) [1]): dose-dependently inhibited replication
- replication of DENV2 (DENV2): dose-dependently inhibited replication
- CC50 (in vitro [2]): > 20000 nM
- viability at 0.625 µM (in vitro [2]; Cell viability (%), 0.625 μM): 107%
- viability at 1.25 µM (in vitro [2]; Cell viability (%), 1.25 μM): 105%
- viability at 5 µM (in vitro [2]; Cell viability (%)): 82.9%
- viability at 20 µM (in vitro [2]; Cell viability (%)): 86.5%
- Huh7 cell viability (%) (Huh7 cells; 0.37 µM): 96.29%
- viability at 0.37 µM (in vitro [6]; U-87 MG cell viability (%)): 81.9%
- viability at 3.33 µM (in vitro [6]; U-87 MG cell viability (%)): 79.5%
- viability at 10 µM (in vitro [6]; U-87 MG cell viability (%)): 75.7%
- viability at […] (in vitro [6]; U-87 MG cell viability (%)): 79.1% and 86.8%
- SARS-CoV-2 infection (%) ([3]; 0.625 μM): 97.75% and 70.79% and 84.27%
- SARS-CoV-2 infection (%) ([3]; 1.25 μM): 57.30% and 67.42% and 50.56%
- SARS-CoV-2 infection (%) ([3]; 5 μM): 0.67% and 1.04% and 1.31%
- SARS-CoV-2 infection (%) ([3]; 20 μM): 0.00337%
- EC50 [3]: 1400 nM
- viability at 0.123 µM (in vitro [4]): 97.1%
- viability at 0.37 µM (in vitro [4]): 97.4%
- viability at 1.111 µM (in vitro [4]): 96.9%
- viability at 3.333 µM (in vitro [4]): 94.3%
- viability at 10 µM (in vitro [4]): 85%

SMILES: CS(=O)(=O)CCNCc1ccc(-c2ccc3ncnc(Nc4ccc(OCc5cccc(F)c5)c(Cl)c4)c3c2)o1 [Lapati-nib]
- viability at 20 µM (in vitro [2]; Cell viability (%)): 67%
- U-87 MG cell viability (%) (U-87 MG cells; 0.37 µM): 129.28%
- SARS-CoV-2 infection (%) ([3]; 0.25 μM): 46.09% and 52.84% and 47.65%
- SARS-CoV-2 infection (%) ([3]; 0.74 μM): 18.11% and 21.05% and 22.00% and 22.88% and 28.58%
- SARS-CoV-2 infection (%) ([3]; 2.22 μM): 20.01% and 16.81% and 28.24% and 14.29% and 20.00%

SMILES: O[C@H]1[C@H]2c3cc4c(cc3CN3CCC(=C[C@@H]1O)[C@H]23)OCO4 [Lycorine]
- replication of TC-83 (VEEV (TC-83) [1]): dose-dependently inhibited replication
- replication of DENV2 (DENV2): dose-dependently inhibited replication
- CC50 (in vitro [2]): > 20000 nM
- viability at 0.37 µM (in vitro [6]; U-87 MG cell viability (%)): 92.9%
- viability at 3.33 µM (in vitro [6]; U-87 MG cell viability (%)): 67.1%
- viability at 10 µM (in vitro [6]; U-87 MG cell viability (%)): 61.2%
- viability at […] (in vitro [6]; U-87 MG cell viability (%)): 81.7% and 97.3%
- EC50 [3]: 500 nM
- viability at 0.37 µM (in vitro [4]): 93.2%
- viability at 3.33 µM (in vitro [4]): 68.1%
- viability at 10 µM (in vitro [4]): 66.6%
- viability at […] (in vitro [4]): 82.9% and 95%

SMILES: COc1c(O)cc2oc3cc(O)c(CC=C(C)C)c(O)c3c(=O)c2c1CC=C(C)C [Mangostin, 9H-Xanthen-9-one, 1,3,6-trihydroxy-7-methoxy-2,8-bis (3-methyl-2-butenyl)-]
- Fluorescence (%area) [5]: 102.5 %area

SMILES: CC[C@@]1([C@@H]2O[C@@H]([C@H]3O[C@@](O)(CO)[C@H](C)C[C@@H]3C)C[C@@H]2C)CC[C@H]([C@]2(C)CC[C@]3(C[C@H](O)[C@@H](C)[C@@H]([C@@H](C)[C@@H](OC)[C@H](C)C(=O)O)O3)O2)O1 [Monensin]
- replication of TC-83 (VEEV (TC-83) [1]): dose-dependently inhibited replication
- replication of DENV2 (DENV2): dose-dependently inhibited replication
- CC50 (in vitro [2]): > 20000 nM
- EC50 [3]: 1200 nM
- viability at 0.37 µM (in vitro [4]): 70.5%
- viability at 3.33 µM (in vitro [4]): 32.2%
- viability at 10 µM (in vitro [4]): 22.1%
- viability at […] (in vitro [4]): 47.9% and 83.7%

SMILES: CCC(CC)COC(=O)[C@H](C)N[P@](=O)(OC[C@H]1O[C@@](C#N)(c2ccc3c(N)ncnn23)[C@H](O)[C@@H]1O)Oc1ccccc1 [Remdesivir]
- rescue of Vero-eGFP cells from SARS-CoV-2-induced lethality, dose response [5]: dose-dependent anti-SARS-CoV-2 activity

SMILES: CC(C)(C)NCC(O)c1ccc(O)c(CO)c1 (centres unmarked) [Salbutamol]
- replication of TC-83 (VEEV (TC-83) [1]): minimal to no activity
- replication of DENV2 (DENV2): minimal to no activity
- CC50 (in vitro [2]): > 20000 nM
- activity against SARS-CoV-2 [3]: minimal to no activity
- EC50 [3]: > 20000 nM

SMILES: CNC(=O)CN1CCC(Oc2cc3c(Nc4cccc(Cl)c4F)ncnc3cc2OC)CC1 [Sapitinib]
- EC50 (VEEV (TC-83) [7]): 2600 nM
- IC50 (ErbB4 [8]): 1.4 nM
- IC50 (ErbB1 (EGFR)): 12 nM
- CC50 (in vitro [9]): > 20000 nM
- viability (in vitro [9]; Calu-3 viability (%)): 82.2%
- CC50 (in vitro [6]): > 20000 nM
- EC50 [10]: 1800 nM
- activity at 0.00305 µM (ErbB4 [11]): 37.7%
- activity at 0.0274 µM (ErbB4 [11]): 10.2%
- activity at 0.08 µM (ErbB4 [11]): 5.52%
- activity at 0.25 µM (ErbB4 [11]): 2.84%
- activity at 0.74 µM (ErbB4 [11]): 1.25%
- activity at 2.22 µM (ErbB4 [11]): 2.36%
- activity at 6.67 µM (ErbB4 [11]): 1.4%
- activity at 20 µM (ErbB4 [11]): 1.27%
- activity at 60 µM (ErbB4 [11]): 0%
- activity at […] (ErbB4 [11]): 18.7% and 54.8%

SMILES: CCN(CC)CCNC(=O)c1c(C)[nH]c(/C=C2\C(=O)Nc3ccc(F)cc32)c1C [Sunitinib]
- CC50 (in vitro [2]): 12200 nM
- viability at 2.5 µM (in vitro [2]; Cell viability (%), 2.5 μM): 68.8%
- viability at 5 µM (in vitro [2]; Cell viability (%)): 66.1%
- Huh7 cell viability (%) (Huh7 cells; 1.25 µM): 90.21%
- Huh7 cell viability (%) (Huh7 cells; 2.5 µM): 75.37%
- viability at 0.25 µM (in vitro [6]; U-87 MG cell viability (%)): 118%
- viability at 0.74 µM (in vitro [6]; U-87 MG cell viability (%)): 110%
- viability at 2.5 µM (in vitro [6]; U-87 MG cell viability (%)): 106%
- viability at 20 µM (in vitro [6]; U-87 MG cell viability (%)): 44.6%
- U-87 MG cell viability (%) (U-87 MG cells; 5 µM): 106.81%
- SARS-CoV-2 infection (%) ([3]; 0.5 μM): 94.03% and 125.37% and 116.42%
- SARS-CoV-2 infection (%) ([3]; 1 μM): 116.42% and 85.07% and 94.03%
- SARS-CoV-2 infection (%) ([3]; 5 μM): 16.57% and 14.33% and 15.67%
- EC50 [3]: 2400 nM
- viability at 0.16 µM (in vitro [4]): 102%
- viability at 0.63 µM (in vitro [4]): 99.8%
- viability at 1.25 µM (in vitro [4]): 89.5%
- viability at 10 µM (in vitro [4]): 59%

SMILES: COc1ccc2cc1Oc1ccc(cc1)C[C@H]1c3cc(c(OC)cc3CCN1C)Oc1c(OC)c(OC)cc3c1[C@H](C2)N(C)CC3 [Tetrandrine, Berbaman, 6,6',7, 12-tetramethoxy-2,2'-dimethyl-, (1β)-]
- CC50 (in vitro [2]): > 20000 nM
- Fluorescence (%area) [5]: 93.6 %area
- EC50 [3]: 1400 nM
- viability at 3.33 µM (in vitro [4]): 93.9%
- viability at 10 µM (in vitro [4]): 44%
- viability at […] (in vitro [4]): 96.8% and 97%

SMILES: CC(C)(C)c1cc(/C=C(\C#N)C(N)=S)cc(C(C)(C)C)c1O [Tyrphostin AG 879]
- replication of TC-83 (VEEV (TC-83) [1]): dose-dependently inhibited replication
- replication of DENV2 (DENV2): dose-dependently inhibited replication
- CC50 (in vitro [2]): > 20000 nM
- EC50 [3]: 600 nM
- viability at 0.37 µM (in vitro [4]): 100%
- viability at 3.33 µM (in vitro [4]): 98.8%
- viability at 10 µM (in vitro [4]): 95.1%
- viability at […] (in vitro [4]): 102% and 98.9%

SMILES: CC[C@@H](C(=O)[C@@H](C)[C@@H](O)[C@H](C)[C@@H]1O[C@@H]([C@@H](CC)C(=O)O)CC[C@@H]1C)[C@H]1O[C@]2(C=C[C@@H](O)[C@]3(CC[C@@](C)([C@H]4CC[C@](O)(CC)[C@H](C)O4)O3)O2)[C@H](C)C[C@@H]1C [salinomycin]
- Fluorescence (%area) [5]: greater than 15
